Tested on: KRAS patient-derived spheroids with HUVEC/MSC, viability
Experiment: Anticancer human tumor 519858-162-T-J1-PDC patient-derived colon adenocarcinoma cell line growth inhibition [KRAS2]
Settings: for IC50: curve of first compound; for viability, T/C: stronger effect = lower value
How it was run: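 Combination screen of spheroid viability in tumor-cell co-cultures with endothelial (HUVEC) and mesenchymal stem cell stroma. Each agent was tested in half-log dilutions, topping at clinical Cmax or at 10 microM without a known Cmax.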

[1] = second compound 0.1 µM, first compound 0.0316 µM
[2] = second compound 0.1 µM, first compound 0.1 µM
[3] = second compound 0.1 µM, first compound 0.316 µM
[4] = second compound 0.1 µM, first compound 1 µM
[5] = second compound 0.1 µM, first compound 3.16 µM
[6] = second compound 0.316 µM, first compound 0.0316 µM
[7] = second compound 0.316 µM, first compound 0.1 µM
[8] = second compound 0.316 µM, first compound 0.316 µM
[9] = second compound 0.316 µM, first compound 1 µM
[10] = second compound 0.316 µM, first compound 3.16 µM
[11] = second compound 1 µM, first compound 0.0316 µM
[12] = second compound 1 µM, first compound 0.1 µM
[13] = second compound 1 µM, first compound 0.316 µM
[14] = second compound 1 µM, first compound 1 µM
[15] = second compound 1 µM, first compound 3.16 µM
[16] = second compound 3.16 µM, first compound 0.0316 µM
[17] = second compound 3.16 µM, first compound 0.1 µM
[18] = second compound 3.16 µM, first compound 0.316 µM
[19] = second compound 3.16 µM, first compound 1 µM
[20] = second compound 3.16 µM, first compound 3.16 µM
[21] = second compound 10 µM, first compound 0.0316 µM
[22] = second compound 10 µM, first compound 0.1 µM
[23] = second compound 0.1 µM, first compound 0.01 µM
[24] = second compound 0.316 µM, first compound 0.01 µM
[25] = second compound 1 µM, first compound 0.01 µM
[26] = second compound 3.16 µM, first compound 0.01 µM
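Note: compound exposure lasted seven days before readout.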
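Throughout, for viability, T/C: 100% = DMSO vehicle control viability.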

## CC(C)NCC(C(=O)N1CCN(c2ncnc3c2C(C)CC3O)CC1)c1ccc(Cl)cc1 (stereo not given) + C=CC(=O)N1CCN(c2nc(=O)n(-c3c(C)ccnc3C(C)C)c3nc(-c4c(O)cccc4F)c(F)cc23)C(C)C1
Second compound 0.1 µM
  IC50: > 10 µM
Second compound 0.316 µM
  IC50: > 10 µM
Second compound 1 µM
  IC50: > 10 µM
Second compound 3.16 µM
  IC50: > 10 µM
Second compound 10 µM
  IC50: > 10 µM
[1]
  viability, T/C: 95.1%
[2]
  viability, T/C: 103%
[3]
  viability, T/C: 65.2%
[4]
  viability, T/C: 69%
[5]
  viability, T/C: 111%
Second compound 0.1 µM, first compound 10 µM
  viability, T/C: 93.2%
[6]
  viability, T/C: 95.3%
[7]
  viability, T/C: 83.3%
[8]
  viability, T/C: 86.5%
[9]
  viability, T/C: 91.9%
[10]
  viability, T/C: 99.1%
Second compound 0.316 µM, first compound 10 µM
  viability, T/C: 119%
[11]
  viability, T/C: 68.7%
[12]
  viability, T/C: 105%
[13]
  viability, T/C: 96.9%
[14]
  viability, T/C: 102%
[15]
  viability, T/C: 77.8%
Second compound 1 µM, first compound 10 µM
  viability, T/C: 72.7%
[16]
  viability, T/C: 92.8%
[17]
  viability, T/C: 90.3%
[18]
  viability, T/C: 87.5%
[19]
  viability, T/C: 67%
[20]
  viability, T/C: 82.7%
Second compound 3.16 µM, first compound 10 µM
  viability, T/C: 87.5%
[21]
  viability, T/C: 85.9%
[22]
  viability, T/C: 73.8%
Second compound 10 µM, first compound 0.316 µM
  viability, T/C: 64.1%
Second compound 10 µM, first compound 1 µM
  viability, T/C: 73.9%
Second compound 10 µM, first compound 3.16 µM
  viability, T/C: 90.8%
Second compound 10 µM, first compound 10 µM
  viability, T/C: 75%

## CC(C)n1nc(-c2ccc3oc(N)nc3c2)c2c(N)ncnc21 + COc1cc2nc(C)nc(NC(C)c3cc(N)cc(C(F)(F)F)c3)c2cc1OC1CCOC1
Second compound 0.1 µM
  IC50: > 0.1 µM
Second compound 0.316 µM
  IC50: > 0.1 µM
Second compound 1 µM
  IC50: > 0.1 µM
Second compound 3.16 µM
  IC50: > 0.1 µM
Second compound 10 µM
  IC50: 0.00458 µM
Second compound 0.1 µM, first compound 0.000316 µM
  viability, T/C: 107%
Second compound 0.1 µM, first compound 0.001 µM
  viability, T/C: 93.9%
Second compound 0.1 µM, first compound 0.00316 µM
  viability, T/C: 79.3%
[23]
  viability, T/C: 73%
[1]
  viability, T/C: 70.9%
[2]
  viability, T/C: 74.9%
Second compound 0.316 µM, first compound 0.000316 µM
  viability, T/C: 89.1%
Second compound 0.316 µM, first compound 0.001 µM
  viability, T/C: 99.8%
Second compound 0.316 µM, first compound 0.00316 µM
  viability, T/C: 90.2%
[24]
  viability, T/C: 84.9%
[6]
  viability, T/C: 73.5%
[7]
  viability, T/C: 72.2%
Second compound 1 µM, first compound 0.000316 µM
  viability, T/C: 89.9%
Second compound 1 µM, first compound 0.001 µM
  viability, T/C: 84.8%
Second compound 1 µM, first compound 0.00316 µM
  viability, T/C: 75.5%
[25]
  viability, T/C: 67.8%
[11]
  viability, T/C: 65.6%
[12]
  viability, T/C: 77.4%
Second compound 3.16 µM, first compound 0.000316 µM
  viability, T/C: 117%
Second compound 3.16 µM, first compound 0.001 µM
  viability, T/C: 84.2%
Second compound 3.16 µM, first compound 0.00316 µM
  viability, T/C: 93.4%
[26]
  viability, T/C: 72.5%
[16]
  viability, T/C: 60.2%
[17]
  viability, T/C: 84.7%
Second compound 10 µM, first compound 0.000316 µM
  viability, T/C: 78.1%
Second compound 10 µM, first compound 0.001 µM
  viability, T/C: 71.7%
Second compound 10 µM, first compound 0.00316 µM
  viability, T/C: 54.3%
Second compound 10 µM, first compound 0.01 µM
  viability, T/C: 42.6%
[21]
  viability, T/C: 30.2%
[22]
  viability, T/C: 45.6%

## CC1COCCN1c1cc(-c2ccnn2C)c2ccnc(-c3ccn[nH]3)c2n1 (stereo not given) + C=CC(=O)N1CCN(c2nc(OCC3CCCN3C)nc3c2CCN(c2cccc4cccc(C)c24)C3)CC1CC#N
Second compound 0.0316 µM
  IC50: 2.39 µM
Second compound 0.1 µM
  IC50: 0.434 µM
Second compound 0.316 µM
  IC50: 0.813 µM
Second compound 1 µM
  IC50: 0.47 µM
Second compound 3.16 µM
  IC50: < 0.01 µM
Second compound 0.0316 µM, first compound 0.01 µM
  viability, T/C: 98.8%
Second compound 0.0316 µM, first compound 0.0316 µM
  viability, T/C: 78.5%
Second compound 0.0316 µM, first compound 0.1 µM
  viability, T/C: 78.3%
Second compound 0.0316 µM, first compound 0.316 µM
  viability, T/C: 69.2%
Second compound 0.0316 µM, first compound 1 µM
  viability, T/C: 74.9%
Second compound 0.0316 µM, first compound 3.16 µM
  viability, T/C: 40.7%
[23]
  viability, T/C: 115%
[1]
  viability, T/C: 74%
[2]
  viability, T/C: 73.3%
[3]
  viability, T/C: 51.6%
[4]
  viability, T/C: 50.3%
[5]
  viability, T/C: 28.4%
[24]
  viability, T/C: 78.5%
[6]
  viability, T/C: 72.7%
[7]
  viability, T/C: 71.2%
[8]
  viability, T/C: 69.5%
[9]
  viability, T/C: 45.7%
[10]
  viability, T/C: 33.2%
[25]
  viability, T/C: 83.4%
[11]
  viability, T/C: 58.3%
[12]
  viability, T/C: 84.5%
[13]
  viability, T/C: 58.6%
[14]
  viability, T/C: 33.9%
[15]
  viability, T/C: 26.7%
[26]
  viability, T/C: 38.3%
[16]
  viability, T/C: 64.3%
[17]
  viability, T/C: 24.3%
[18]
  viability, T/C: 29.5%
[19]
  viability, T/C: 30.7%
[20]
  viability, T/C: 13.2%

From PubChem BioAssay AID1963872 (Molecular Pharmacology Branch, DTP, NCI, 2024)
